The conditions of data set [1]: Liquid; for mass density: 298.15 K, 101.33 kPa, Pycnometric method; for Normal boiling temperature: Ebulliometric method (Recirculating still).
The nature of data set [2]: Boiling temperature at pressure P. As to conditions: Liquid, Ebulliometric method (Recirculating still).
The nature of data set [3]: refractive index (Na D-line) (dimensionless). As to conditions: 298.15 K; 101.33 kPa; Liquid; Standard Abbe refractometry.

Numbers after ± are expanded uncertainties.

As usually defined, the mass density is mass per unit of volume. As usually defined, the refractive index is the speed of light in vacuum divided by its phase velocity in the sample. In the case of `CCCCOCOC` [1-(methoxymethoxy)-butane], the mass density in data set [1] stood at 837.1 ± 0.8 kg/m3. For the same molecule, the Normal boiling temperature in data set [1] came to 119.44 ± 0.2 °C. The “Boiling temperature at pressure P” value was found to be 49.24 ± 0.21 °C in data set [2] (8.01 kPa); 70.88 ± 0.2 °C in data set [2] (20 kPa); 81.73 ± 0.2 °C in data set [2] (30 kPa); 85.81 ± 0.2 °C in data set [2] (34.84 kPa); 89.66 ± 0.2 °C in data set [2] (39.85 kPa); 96.50 ± 0.2 °C in data set [2] (50 kPa). Moreover, the “Boiling temperature at pressure P” value in data set [2] (55.02 kPa) was found to be 99.39 ± 0.2 °C. Besides, the refractive index in data set [3] was 1.387 ± 0.0007.

For the molecule `CCCCO` [butan-1-ol], in data set [1], the mass density was determined as 805.2 ± 0.7 kg/m3. For the same molecule, the refractive index in data set [3] is 1.3967 ± 0.0007.

Turning to `CCCO` [propan-1-ol], in data set [1], the mass density is listed as 799.3 ± 0.7 kg/m3 and the Normal boiling temperature turned out to be 97.16 ± 0.2 °C. For the same molecule, in data set [3], the refractive index worked out at 1.3833 ± 0.0007.
